In BindingDB's records for doi:10.7270/Q28G8J4C (Broad Institute, 2009):

Each compound was assayed against T1, POsterior Segregation (Caenorhabditis elegans, UniProt G5EF15) (assay: inhibitors of POS-1/mex-3 RNA binding, dose response, biochemical, fluorescence polarization (AID 1964)).
T1 sequence (G5EF15 whole entry): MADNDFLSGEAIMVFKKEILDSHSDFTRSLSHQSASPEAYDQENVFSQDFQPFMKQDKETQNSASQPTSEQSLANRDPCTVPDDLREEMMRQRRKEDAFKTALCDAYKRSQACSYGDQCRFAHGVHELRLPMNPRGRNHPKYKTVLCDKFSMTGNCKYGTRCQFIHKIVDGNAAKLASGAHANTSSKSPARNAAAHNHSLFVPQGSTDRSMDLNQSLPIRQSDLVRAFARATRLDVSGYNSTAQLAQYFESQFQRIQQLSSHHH
In the case of `CC1(C)CC(=O)C2=C(C1)OC(=N)C(C#N)C21C(=O)N(CN2CCOCC2)c2ccccc21` (centres undefined) [2-amino-2',5-diketo-7,7-dimethyl-1'-(morpholinomethyl)spiro[6,8-dihydrochromene-4,3'-indoline]-3-carbonitrile], the EC50 is reported as > 300 µM.
`CN1CCC2=C(C#N)C(=N)C(C#N)(C#N)C(c3cccc(Cl)c3Cl)C2C1` (centres undefined) [6-azanyl-8-[2,3-bis(chloranyl)phenyl]-2-methyl-1,3,8,8a-tetrahydroisoquinoline-5,7,7-tricarbonitrile] showed an EC50 of 14.4 µM.
`COc1cc(C2C3CN(C)CCC3=C(C#N)C(=N)C2(C#N)C#N)ccc1OC(C)C` (centres undefined) [MLS000034945] was tested, and the EC50 was > 300 µM.
Compound `C=CCN1C(=O)NC(=O)C(=CNc2ccc(N(CC)CC)cc2)C1=O` [(5E)-1-allyl-5-[[4-(diethylamino)anilino]methylene]barbituric acid] has an EC50 of 109 µM.
In the case of `C=CCSc1nnc(N2C(=O)C(=O)C(C(=O)c3ccco3)C2c2ccccc2F)s1` (centres undefined) [1-[5-(allylthio)-1,3,4-thiadiazol-2-yl]-5-(2-fluorophenyl)-4-(2-furoyl)-3-hydroxy-3-pyrrolin-2-one], the EC50 is reported as 48.3 µM.
`CCN(CC)c1ccc(C=NC(C#N)C(=N)C#N)cc1` (centres undefined) [SMR000023871] gave an EC50 of 281 µM.
For `CC1(C)CC(=O)C2=C(C1)OC(=N)C(C#N)C2c1ccccc1OC(=O)N1CCOCC1` (centres undefined) [2-(2-amino-3-cyano-7,7-dimethyl-5-oxo-5,6,7,8-tetrahydro-4H-chromen-4-yl)phenyl morpholine-4-carboxylate], the EC50 was > 300 µM.
Compound `CCOC(=O)C1C(=O)C(=Cc2cn(CC(=O)N3CCCC3)c3ccccc23)S/C1=N\c1ccccc1` (centres undefined) [(5Z)-2-anilino-4-keto-5-[[1-(2-keto-2-pyrrolidino-ethyl)indol-3-yl]methylene]thiophene-3-carboxylic acid ethyl ester] has an EC50 of 47.5 µM.
With `N#CC1C(=N)OC2=C(C(=O)CCC2)C1c1cc2c(cc1Br)OCO2` (centres undefined) [2-azanyl-4-(6-bromanyl-1,3-benzodioxol-5-yl)-5-oxidanylidene-4,6,7,8-tetrahydrochromene-3-carbonitrile] the EC50 was > 300 µM.
With `O=C1NC(=O)N(CCc2ccccc2)C(=O)C1=CNCCCn1ccnc1` [(5E)-5-[(3-imidazol-1-ylpropylamino)methylene]-1-phenethyl-barbituric acid] the EC50 was > 300 µM.
`Oc1csc(N=NCc2cccs2)n1` [2-[2-(thiophen-2-ylmethylidene)hydrazinyl]-1,3-thiazol-4-one] was tested, and the EC50 was > 300 µM.
For `COc1ccc(N=Cc2cc3c(cc2O)OC(=N)C(C#N)C3c2ccccc2)cc1` (centres undefined) [(6E)-2-amino-6-[(4-methoxyanilino)methylidene]-7-oxo-4-phenyl-4H-1-benzopyran-3-carbonitrile], the EC50 was > 300 µM.
Work on `O=[N+]([O-])c1ccc(/N=N/c2ncc[nH]2)cc1` [N-(imidazol-2-ylideneamino)-4-nitroaniline] yielded an EC50 of 69.1 µM.
In the case of `COc1cccc(C2C(C(=O)c3cc4cccc(OC)c4o3)C(=O)C(=O)N2c2cc(C)on2)c1OC` (centres undefined) [2-(2,3-dimethoxyphenyl)-3-[(7-methoxy-1-benzofuran-2-yl)carbonyl]-1-(5-methyl-1,2-oxazol-3-yl)-4-oxidanyl-2H-pyrrol-5-one], the EC50 is reported as > 300 µM.
`Cc1[nH]n(C(N)=S)c(=O)c1N=Nc1cccc(C(=O)O)c1` [3-[(1-carbamothioyl-3-methyl-5-oxo-4H-pyrazol-4-yl)diazenyl]benzoic acid] showed an EC50 of 35.1 µM.
With `CS(=O)(=O)Nc1nc2n(n1)C(c1ccccc1)CC(c1ccc(Br)cc1)=N2` (centres undefined) the EC50 was > 300 µM.
For `CN(C)c1ccc(NC=C2C(=O)NC(=O)N(CCC3=CCCCC3)C2=O)cc1` [(5Z)-1-[2-(cyclohexen-1-yl)ethyl]-5-[[[4-(dimethylamino)phenyl]amino]methylidene]-1,3-diazinane-2,4,6-trione], the EC50 was > 300 µM.
Work on `Cn1c(=O)[nH]c(=O)c2c1nc(N=NC=C(Br)Cc1ccccc1)n2CCO` [SMR000436442] yielded an EC50 of 206 µM.
With `O=C1NC(=O)N(c2cccc(F)c2)C(=O)C1=Cc1c[nH]c2ccccc12` the EC50 was > 300 µM.
